From ChEMBL document CHEMBL3632587, “Discovery of a Specific Inhibitor of Pyomelanin Synthesis in Legionella pneumophila” (J Med Chem, 2015)
“And” between values parts separate entries of the source, which are not always exact repeats. Identical values can stand only once. The source made the active and inactive calls. The rule behind the calls is not given here.

How the values were obtained:
Legionella pneumophila [1] = assay: Inhibition of Legionella pneumophila recombinant PAH assessed as residual activity by […] assay using 1 mM L-Phe as substrate and 200 uM BH4 as cofactor
[2] = Mixed inhibition of Legionella pneumophila recombinant PAH for free enzyme by […] assay using L-Phe as substrate
Legionella pneumophila [3] = assay: Inhibition of PAH in Legionella pneumophila 130b lysate assessed as residual activity at 10 uM by direct detect spectrometer
[4] = Binding affinity to Legionella pneumophila recombinant PAH by DSF assay
Escherichia coli [5] = assay: Antibacterial activity against Escherichia coli XL-10 Gold at <= 100 uM after 21 hrs; assay type: functional, organism-based
[6] = Non-competitive inhibition of Legionella pneumophila recombinant PAH for free enzyme by […] assay using BH4 as cofactor
[7] = Non-competitive inhibition of Legionella pneumophila recombinant PAH for enzyme-substrate complex by […] assay using BH4 as cofactor
Legionella pneumophila [8] = assay: Antibacterial activity against Legionella pneumophila 130b assessed as bacterial growth at 20 uM after 24 hrs by spectrometer; assay type: functional, organism-based
[9] = Mixed inhibition of Legionella pneumophila recombinant PAH for enzyme-substrate complex by […] assay method using L-Phe as substrate
Legionella pneumophila [10] = assay: Antibacterial activity against Legionella pneumophila 130b assessed as bacterial growth at <= 10 uM after 24 hrs by spectrometer; assay type: functional, organism-based
Legionella pneumophila [11] = assay: Antibacterial activity against Legionella pneumophila 130b assessed as bacterial growth at 40 uM after 24 hrs by spectrometer; assay type: functional, organism-based
[12] = target: T1, Phenylalanine-4-hydroxylase (Homo sapiens) (UniProt P00439); assay: Inhibition of human PAH by […] assay using L-Phe as substrate and 75 uM BH4 as cofactor
T1 sequence (whole entry): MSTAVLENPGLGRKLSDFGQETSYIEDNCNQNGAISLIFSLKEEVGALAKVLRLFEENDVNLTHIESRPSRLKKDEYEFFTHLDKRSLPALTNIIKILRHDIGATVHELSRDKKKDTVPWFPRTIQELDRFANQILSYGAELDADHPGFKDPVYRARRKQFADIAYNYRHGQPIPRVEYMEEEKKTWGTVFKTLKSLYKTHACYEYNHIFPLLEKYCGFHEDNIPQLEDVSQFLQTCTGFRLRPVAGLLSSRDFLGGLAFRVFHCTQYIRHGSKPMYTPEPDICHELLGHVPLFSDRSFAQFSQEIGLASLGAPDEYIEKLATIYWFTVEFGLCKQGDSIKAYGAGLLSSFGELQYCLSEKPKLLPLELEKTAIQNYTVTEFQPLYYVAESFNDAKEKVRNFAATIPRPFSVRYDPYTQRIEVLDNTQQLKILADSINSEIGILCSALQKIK

Escherichia coli [13] = assay: Antibacterial activity against Escherichia coli XL-10 Gold assessed as slower growth rate at > 40 uM after 21 hrs; assay type: functional, organism-based
Legionella pneumophila [14] = assay: Antibacterial activity against Legionella pneumophila 130b assessed as bacterial growth at 0.1 to 40 uM after 24 hrs by spectrometer; assay type: functional, organism-based
[15] = Uncompetitive inhibition of Legionella pneumophila recombinant PAH for free enzyme by […] assay using L-Phe as substrate
[16] = Uncompetitive inhibition of Legionella pneumophila recombinant PAH for enzyme-substrate complex by […] assay using L-Phe as substrate

Oc1cc(C(F)(F)F)nn1-c1nc2ccccc2s1
Activity (Legionella pneumophila [1]): 1.4%

c1ccc(-c2cc(N3CCOCC3)c3ccccc3n2)nc1
Activity (Legionella pneumophila [1]): 4.9% and 2.6%

O=C(C1=C(O)C(=O)N(Cc2ccco2)C1c1ccc(Oc2ccccc2)cc1)c1cccs1 (configuration not stated)
Activity (Legionella pneumophila [1]): 1.53%

c1ccc2c(c1)CSc1ccccc1C2n1ccnc1 (configuration not stated)
Activity (Legionella pneumophila [1]): 1.6%

Cc1nccn1C1c2ccccc2CSc2sccc21 (configuration not stated)
Activity (Legionella pneumophila [1]): 2.2%

c1ccc2c(c1)CSc1sccc1C2n1ccnc1 (configuration not stated)
Ki [2]: 2200 nM
Activity (Legionella pneumophila [3]): 36%
Kd [4]: 1100 nM
Activity (Escherichia coli [5]): inactive
Ki [6]: 2000 nM
Ki [7]: 1700 nM
Activity (Legionella pneumophila [1]): 0.38%
Activity (Legionella pneumophila [8]): Active
Ki [9]: 4100 nM
Activity (Legionella pneumophila [10]): inactive
Activity (Legionella pneumophila [11]): Active
inhibition [12]: Active
Activity (Escherichia coli [13]): Active

O=C(O)c1cc([N+](=O)[O-])cc2c1-c1ccc([N+](=O)[O-])cc1/C2=N/O
Activity (Legionella pneumophila [14]): Active
Activity (Legionella pneumophila [3]): 39%
Ki [6]: 1000 nM
Ki [15]: 20000 nM
Ki [7]: 1000 nM
Activity (Legionella pneumophila [1]): 0.1%
Ki [16]: 370 nM

O=c1cc(CO)oc(C(Nc2nccs2)c2ccc(F)cc2)c1O (configuration not stated)
Activity (Legionella pneumophila [1]): 0.1%

S=C(NNC(=S)Nc1ccccc1)Nc1ccccc1
Activity (Legionella pneumophila [1]): 1.9%

CC1(C)CC(=O)C2=C(C1)NC1=C(C(=O)CC(C)(C)C1)C2c1cnc[nH]1
Activity (Legionella pneumophila [1]): 3.2%

c1ccc(-c2cc(N3CCCCC3)c3ccccc3n2)nc1
Activity (Legionella pneumophila [1]): 3.1%

CC(C)(C)c1ccc(C2C(C(=O)c3cccs3)=C(O)C(=O)N2c2nncs2)cc1 (configuration not stated)
Activity (Legionella pneumophila [1]): 4.2%

O=C(C1=C(O)C(=O)N(c2nncs2)C1c1ccc(Cl)cc1)c1cccs1 (configuration not stated)
Activity (Legionella pneumophila [1]): 2.23%

CN1CCN(c2cc(-c3ccccn3)nc3ccccc23)CC1
Activity (Legionella pneumophila [1]): 2.6%
